Counter-ions that a name gives are not always drawn.
Key:
Assay type in all cases: biochemical
BTK = biological target: T1, BTK (Homo sapiens, UniProt Q06187); experiment: Btk in vitro inhibitory activity (kinase assay by one of Methods A, B or C)
T1 construct: purified from insect cells as a full-length construct containing a N-terminal 6×-His tag; His6 (N); host or cells: insect cells (baculovirus Sf21)
Protocol: (§1) Btk kinase activity is determined using a time-resolved fluorescence resonance energy transfer (TR-FRET) methodology. Measurements are performed in a reaction volume of 50 μL using 96-well assay plates. Kinase enzyme, inhibitor, ATP (at the Km for the kinase), and 1 peptide substrate (Biotin-AVLESEEELYSSARQ-NH2) are incubated in a reaction buffer composed of 20 mM Tris, 50 mM NaCl, MgCl2 (5-25 mM depending on the kinase), MnCl2 (0-10 mM), 1 mM DTT, 0.1 mM EDTA, 0.01% bovine serum albumin, 0.005% Tween-20, and 10% DMSO at pH 7.4 for one hour. The reaction is quenched by the addition of 1.2 equivalents of EDTA (relative to divalent cation) in 25 μL of 1× Lance buffer (Perkin-Elmer). Streptavidin-APC (Perkin-Elmer) and Eu-labeled p-Tyr100 antibody (Perkin-Elmer) in 1× Lance buffer are added in a 25 μL volume to give final concentrations of 100 nM and 2.5 nM, respectively, and the mixture is allowed to incubate for one hour. The TR-FRET signal is measured on a multimode plate reader with an excitation wavelength (λEx) of 330 nm and detection wavelengths (λEm) of 615 and 665 nm. Activity is determined by the ratio of the fluorescence at 665 nm to that at 615 nm. For each compound, enzyme activity is measured at various concentrations of compound. Negative control reactions are performed in the absence of inhibitor in replicates of six, and two no-enzyme controls are used to determine baseline fluorescence levels. Inhibition constants, Ki(app), were obtained using the program BatchKi (Kuzmic et al. (2000), Anal. Biochem. 286:45-50). IC50s are obtained according to the equation: IC50=[…]+[E]total/2;
(§2) For all kinases, [ATP]=Km^ATP, [Btk]total=0.5 nM and [Lck]total=6 nM.
(§3) Kinase activity is measured in vitro using electrophoretic mobility shift assay. The kinase reactions are assembled in a total volume of 25 μL in 384 well plates. The reactions comprise: BTK enzyme (1 nM, N-terminal His6-tagged, recombinant, full-length, human BTK purified from baculovirus Sf21 insect cell system), inhibitor, ATP (16 μM, the apparent Km for the kinase), fluorescently labeled peptide substrate (1 μM, FAM-GEEPLYWSFPAKKK-NH2) in a reaction buffer composed of 100 mM HEPES, pH7.5, 5 mM MgCl2 1 mM DTT, 0.1% bovine serum albumin, 0.01% Triton X-100, and 1% DMSO. The reaction is incubated for one hour and is quenched by the addition of 45 μL of termination buffer (100 mM HEPES, pH7.5, 0.01% Triton X-100, 30 mM EDTA). The terminated reactions are analyzed using 12 channel LabChip® 3000 microfluidic detection instrument (Caliper Life Sciences). The enzymatic phosphorylation of the peptide results in a change in net charge, enabling electrophoretic separation of product from substrate peptide. As substrate and product peptides are separated, two peaks of fluorescence are observed. Change in the relative fluorescence intensity of the substrate and product peaks is the parameter measured, reflecting enzyme activity. In the presence of an inhibitor, the ratio between product and substrate is altered:the signal of the product decreases, while the signal of the substrate increases.
(§4) Activity in each sample is determined as the product to sum ratio (PSR):P/(S+P), where P is the peak height of the product peptide and S is the peak height of the substrate peptide. For each compound, enzyme activity is measured at various concentrations (12 concentrations of compound spaced by 3× dilution intervals). Negative control samples (0%-inhibition in the absence of inhibitor) and positive control samples (100%-inhibition, in the presence of 20 mM EDTA) are assembled in replicates of four and are used to calculate %-inhibition values for each inhibitor at each concentration. Percent inhibition (Pinh) is determined using following equation: […]

LCK = LCK (Homo sapiens, UniProt P06239); experiment: Kinase panel inhibition, LCK (one of the methods of Example 76a, 76b, 76c)
Protocol: as §1, §2, §3, §4

EGFR = EGFR (Homo sapiens, UniProt P00533); experiment: Kinase panel inhibition, EGFR (one of the methods of Example 76a, 76b, 76c)
Protocol: as §1, §2, §3, §4

Chain of EGFR (P00533 25-1210, species assumed): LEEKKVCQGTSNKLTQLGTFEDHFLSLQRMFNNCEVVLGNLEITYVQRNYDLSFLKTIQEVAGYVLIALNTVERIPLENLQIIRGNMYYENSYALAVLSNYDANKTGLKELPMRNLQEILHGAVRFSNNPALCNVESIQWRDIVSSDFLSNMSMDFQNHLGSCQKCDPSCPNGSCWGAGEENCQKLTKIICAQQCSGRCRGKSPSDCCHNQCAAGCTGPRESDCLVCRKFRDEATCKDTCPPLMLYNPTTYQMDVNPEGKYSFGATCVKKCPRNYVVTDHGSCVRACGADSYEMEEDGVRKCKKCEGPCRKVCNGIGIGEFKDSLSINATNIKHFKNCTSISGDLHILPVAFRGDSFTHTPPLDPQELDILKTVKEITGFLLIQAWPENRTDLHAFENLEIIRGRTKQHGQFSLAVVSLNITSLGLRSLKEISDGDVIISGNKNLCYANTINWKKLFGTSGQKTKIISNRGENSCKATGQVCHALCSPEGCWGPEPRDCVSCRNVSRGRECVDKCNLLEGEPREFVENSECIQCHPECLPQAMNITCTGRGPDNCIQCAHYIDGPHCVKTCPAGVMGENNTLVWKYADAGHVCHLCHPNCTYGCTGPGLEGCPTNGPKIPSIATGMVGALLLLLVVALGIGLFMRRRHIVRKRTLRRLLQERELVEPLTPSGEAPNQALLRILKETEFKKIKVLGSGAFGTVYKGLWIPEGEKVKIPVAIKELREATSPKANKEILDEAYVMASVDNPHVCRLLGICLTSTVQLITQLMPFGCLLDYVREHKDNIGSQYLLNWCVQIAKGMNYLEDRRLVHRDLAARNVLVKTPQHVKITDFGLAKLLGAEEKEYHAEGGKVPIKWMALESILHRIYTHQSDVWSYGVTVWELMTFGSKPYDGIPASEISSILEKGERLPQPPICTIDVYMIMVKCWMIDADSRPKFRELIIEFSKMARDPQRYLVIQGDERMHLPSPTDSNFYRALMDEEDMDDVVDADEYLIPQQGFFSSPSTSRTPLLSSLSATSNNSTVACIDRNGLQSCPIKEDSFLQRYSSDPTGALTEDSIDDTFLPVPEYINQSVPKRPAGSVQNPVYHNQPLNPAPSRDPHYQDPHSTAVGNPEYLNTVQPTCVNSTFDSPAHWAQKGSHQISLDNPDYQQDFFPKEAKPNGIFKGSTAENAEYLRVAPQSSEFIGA
T1 sequence (Q06187 whole entry): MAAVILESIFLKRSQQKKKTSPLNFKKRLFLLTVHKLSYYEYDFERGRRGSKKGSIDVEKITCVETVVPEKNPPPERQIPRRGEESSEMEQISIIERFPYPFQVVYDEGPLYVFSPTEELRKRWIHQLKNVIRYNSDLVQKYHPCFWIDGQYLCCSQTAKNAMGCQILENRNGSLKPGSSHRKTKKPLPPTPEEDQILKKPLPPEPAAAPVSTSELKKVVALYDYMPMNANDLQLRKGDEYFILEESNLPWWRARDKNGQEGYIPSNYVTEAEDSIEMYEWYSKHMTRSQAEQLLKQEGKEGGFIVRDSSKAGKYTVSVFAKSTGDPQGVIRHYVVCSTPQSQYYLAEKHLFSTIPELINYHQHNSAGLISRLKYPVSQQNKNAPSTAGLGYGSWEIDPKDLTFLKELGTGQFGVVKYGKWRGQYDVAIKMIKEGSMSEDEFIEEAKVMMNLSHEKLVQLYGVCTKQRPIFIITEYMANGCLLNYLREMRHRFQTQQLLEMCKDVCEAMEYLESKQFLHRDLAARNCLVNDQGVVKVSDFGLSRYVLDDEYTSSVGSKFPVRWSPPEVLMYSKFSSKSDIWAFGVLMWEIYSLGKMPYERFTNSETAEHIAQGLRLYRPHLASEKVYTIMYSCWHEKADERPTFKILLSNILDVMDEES
Chain of LCK (P06239 whole entry, species assumed): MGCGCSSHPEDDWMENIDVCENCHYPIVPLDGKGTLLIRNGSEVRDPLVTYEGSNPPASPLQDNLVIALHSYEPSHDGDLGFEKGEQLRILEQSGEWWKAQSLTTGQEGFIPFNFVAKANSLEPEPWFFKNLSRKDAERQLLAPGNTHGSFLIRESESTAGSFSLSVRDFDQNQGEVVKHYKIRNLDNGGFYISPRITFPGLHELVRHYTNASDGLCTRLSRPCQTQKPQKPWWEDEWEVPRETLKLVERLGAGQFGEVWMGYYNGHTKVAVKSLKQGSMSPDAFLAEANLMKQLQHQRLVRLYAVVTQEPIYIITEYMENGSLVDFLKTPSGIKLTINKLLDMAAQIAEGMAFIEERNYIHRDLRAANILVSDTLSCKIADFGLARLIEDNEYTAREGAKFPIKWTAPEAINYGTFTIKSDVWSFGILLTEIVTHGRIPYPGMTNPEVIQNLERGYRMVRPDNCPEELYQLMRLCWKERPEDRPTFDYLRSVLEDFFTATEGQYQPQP

SMILES | IC50 (BTK) [µM] | IC50 (LCK) [µM] | IC50 (EGFR) [µM]
Cc1cccc(COc2ccc(-n3c(=O)n(-c4cccc(N(C)C(=O)/C=C/CN(C)C5CC5)c4)c4ncnc(N)c43)cc2)c1 [Compound 239, (E)-N-(3-(6-amino-7-(4-(3-methylbenzyloxy)phenyl)-8-oxo-7H-purin-9(8H)-yl)phenyl)-4-(cyclopropyl(methyl)amino)-N-methylbut-2-enamide] | < 0.1 | > 10 | 1 to 10
N#C/C(=C\C1CC1)C(=O)N1CCC[C@@H](n2c(=O)n(-c3ccc(Oc4ccccc4)cc3)c3c(N)ncnc32)C1 [Compound 324, (R,E)-2-(3-(6-amino-8-oxo-7-(4-phenoxyphenyl)-7H-purin-9(8H)-yl)piperidine-1-carbonyl)-3-cyclopropylacrylonitrile] | < 0.1 | 0.1 to 1 | 0.1 to 1
COc1ccc(-n2c(=O)n(-c3ccc(Oc4ccccc4)cc3)c3c(N)ncnc32)cc1N(C)C(=O)/C=C/CN(C)C1CC1 [Compound 171, (E)-N-(5-(6-amino-8-oxo-7-(4-phenoxyphenyl)-7H-purin-9(8H)-yl)-2-methoxyphenyl)-4-(cyclopropyl(methyl)amino)-N-methylbut-2-enamide] | < 0.1 | 1 to 10 | 1 to 10
CN(C(=O)/C=C/CN(C)C1CC1)c1ccc(-n2c(=O)n(-c3ccc(Oc4ccccc4)cc3)c3c(N)ncnc32)cc1 [Compound 44, (E)-N-(4-(6-amino-8-oxo-7-(4-phenoxyphenyl)-7H-purin-9(8H)-yl)phenyl)-4-(cyclopropyl(methyl)amino)-N-methylbut-2-enamide] | < 0.1 | 0.1 to 1 | 1 to 10
COc1cc(NC(=O)/C=C/CN(C)C2CC2)cc(-n2c(=O)n(-c3ccc(Oc4ccccc4)cc3C)c3c(N)ncnc32)c1 [Compound 301, (E)-N-(3-(6-amino-7-(2-methyl-4-phenoxyphenyl)-8-oxo-7H-purin-9(8H)-yl)-5-methoxyphenyl)-4-(cyclopropyl(methyl)amino)but-2-enamide] | < 0.1 | 1 to 10 | 0.1 to 1
CN(C(=O)/C=C/c1cn(C)cn1)c1cccc(-n2c(=O)n(-c3ccc(Oc4ccccc4)cc3)c3c(N)ncnc32)c1 [Compound 327, (E)-N-(3-(6-amino-8-oxo-7-(4-phenoxyphenyl)-7H-purin-9(8H)-yl)phenyl)-N-methyl-3-(1-methyl-1H-imidazol-4-yl)acrylamide] | 0.1 to 1 | 1 to 10 | 1 to 10
CN(C(=O)/C=C/CN(C)C1CC1)c1cccc(-n2c(=O)n(-c3ccc(Oc4cccc(F)c4)cc3)c3c(N)ncnc32)c1 [Compound 151, (E)-N-(3-(6-amino-7-(4-(3-fluorophenoxy)phenyl)-8-oxo-7H-purin-9(8H)-yl)phenyl)-4-(cyclopropyl(methyl)amino)-N-methylbut-2-enamide] | < 0.1 | 1 to 10 | 1 to 10
CN(C)C/C=C/C(=O)N(C)c1cccc(-n2c(=O)n(-c3ccc(Cl)cc3)c3c(N)ncnc32)c1 [Compound 27, (E)-N-(3-(6-amino-7-(4-chlorophenyl)-8-oxo-7H-purin-9(8H)-yl)phenyl)-4-(dimethylamino)-N-methylbut-2-enamide] | < 0.1 | > 10 | > 10
CN(C(=O)/C=C/c1ccccn1)c1cccc(-n2c(=O)n(-c3ccc(Oc4ccccc4)cc3)c3c(N)ncnc32)c1 [Compound 247, (E)-N-(3-(6-amino-8-oxo-7-(4-phenoxyphenyl)-7H-purin-9(8H)-yl)phenyl)-N-methyl-3-(pyridin-2-yl)acrylamide] | 0.1 to 1 | 1 to 10 | 1 to 10
CN(C(=O)/C=C/CN(C)C1CC1)c1cccc(-n2c(=O)n(-c3ccc(Oc4ccccc4)cc3)c3c(N)ncnc32)c1 [Compound 34, (E)-N-(3-(6-amino-8-oxo-7-(4-phenoxyphenyl)-7H-purin-9(8H)-yl)phenyl)-4-(cyclopropyl(methyl)amino)-N-methylbut-2-enamide] | < 0.1 | 1 to 10 | 0.1 to 1
CNC/C=C/C(=O)Nc1cccc(-n2c(=O)n(-c3ccc(Oc4ccccc4)cc3)c3c(N)ncnc32)c1 [Compound 329, (E)-N-(3-(6-amino-8-oxo-7-(4-phenoxyphenyl)-7H-purin-9(8H)-yl)phenyl)-4-(methylamino)but-2-enamide] | < 0.1 | 0.1 to 1 | < 0.1
COc1cc(-n2c(=O)n([C@@H]3CCN(C(=O)/C=C/CN(C)C)C3)c3ncnc(N)c32)ccc1C [Compound 81, (R,E)-6-amino-9-(1-(4-(dimethylamino)but-2-enoyl)pyrrolidin-3-yl)-7-(3-methoxy-4-methylphenyl)-7H-purin-8(9H)-one] | < 0.1 | 1 to 10 | > 10
CNC/C=C/C(=O)N(C)c1cccc(-n2c(=O)n(-c3ccc(Oc4ccccc4)cc3)c3c(N)ncnc32)c1 [Compound 229, (E)-N-(3-(6-amino-8-oxo-7-(4-phenoxyphenyl)-7H-purin-9(8H)-yl)phenyl)-N-methyl-4-(methylamino)but-2-enamide hydrochloride] | < 0.1 | 1 to 10 | < 0.1
Cc1ccc(N(C)C(=O)/C=C/CN(C)C2CC2)cc1-n1c(=O)n(-c2ccc(Oc3ccccc3)cc2)c2c(N)ncnc21 [Compound 191, (E)-N-(3-(6-amino-8-oxo-7-(4-phenoxyphenyl)-7H-purin-9(8H)-yl)-4-methylphenyl)-4-(cyclopropyl(methyl)amino)-N-methylbut-2-enamide] | 0.1 to 1 | > 10 | > 10
CN(C)C/C=C/C(=O)N1CCC(Cn2c(=O)n(-c3ccc(Oc4ccccc4)cc3)c3c(N)ncnc32)CC1 [Compound 75, (E)-6-amino-9-((1-(4-(dimethylamino)but-2-enoyl)piperidin-4-yl)methyl)-7-(4-phenoxyphenyl)-7H-purin-8(9H)-one] | < 0.1 | 0.1 to 1 | 1 to 10
Cc1cc(NC(=O)/C=C/CN(C)C2CC2)cc(-n2c(=O)n(-c3ccc(Oc4ccccc4)cc3C)c3c(N)ncnc32)c1 [Compound 298, (E)-N-(3-(6-amino-7-(2-methyl-4-phenoxyphenyl)-8-oxo-7H-purin-9(8H)-yl)-5-methylphenyl)-4-(cyclopropyl(methyl)amino)but-2-enamide] | < 0.1 | 1 to 10 | 0.1 to 1
C=CC(=O)N(C)c1ccc(-n2c(=O)n(-c3ccc(Cl)cc3)c3c(N)ncnc32)cc1 [Compound 51, N-(4-(6-amino-7-(4-chlorophenyl)-8-oxo-7H-purin-9(8H)-yl)phenyl)-N-methylacrylamide] | < 0.1 | 1 to 10 | 0.1 to 1
Cc1ccc(-n2c(=O)n(-c3ccc(Oc4ccccc4)cc3)c3c(N)ncnc32)cc1N(C)C(=O)/C=C/CN(C)C1CC1 [Compound 201, (E)-N-(5-(6-amino-8-oxo-7-(4-phenoxyphenyl)-7H-purin-9(8H)-yl)-2-methylphenyl)-4-(cyclopropyl(methyl)amino)-N-methylbut-2-enamide] | < 0.1 | 1 to 10 | 1 to 10
CN(C/C=C/C(=O)Nc1cccc(-n2c(=O)n(-c3ccc(Oc4ccccc4)cc3)c3c(N)ncnc32)c1)C1CCC1 [Compound 10, (E)-N-(3-(6-amino-8-oxo-7-(4-phenoxyphenyl)-7H-purin-9(8H)-yl)phenyl)-4-(cyclobutyl(methyl)amino)but-2-enamide] | < 0.1 | 0.1 to 1 | < 0.1

From patent US9469642B2, “Purinone compounds as kinase inhibitors” (Pharmacyclics LLC, priority 2012, dated 2016)
